One experiment concerns the target human FOLH1 (Homo sapiens (Human), UniProt Q04609). The experiment is described as follows: SPR analysis of binding kinetics to biotinylated FOLH1 (Biacore 8K). As to conditions: ligand PSMA; for Kon: association rate; for koff: dissociation rate; for Kd: kinetic 1:1 binding model. The method, then: The interaction of PSMA-binding variants with human FOLH1 was measured with Surface Plasmon Resonance (SPR) technology. Biotinylated FOLH1 was captured at a concentration of 30 μg/mL onto a Streptavidin chip.
Binding kinetics of the analytes were measured with a Biacore 8K instrument in two-fold serial dilutions starting at 500 nM down to 1.95 nM in single cycle kinetic measurements. After each cycle, needles were washed with 50% DMSO. To measure the association to the FOLH1 protein, the samples were injected with a flow rate of 30 μL/min for 90 s, followed by 1200 s buffer only to detect the dissociation. The used running buffer was 1×PBS with 0.05% Tween20 and 2% DMSO. The relative response units (RU, Y-axis) are plotted against time (s, X-axis) and analyzed in a kinetic 1:1 binding model.
In a different setup, biotinylated FOLH1 was captured at a concentration of 0.8 μg/mL and the running buffer was 1×PBS with 0.05% Tween20.
A general note: In SPR one partner is held on a chip, and binding of the other changes the refractive index at the surface.

Experiment [1] concerns the target Recombinant Human PSMA/FOLH1 Protein (Homo sapiens (Human), UniProt Q04609). Briefly: Inhibition assay (Amplex Red glutamic acid/glutamate oxidase, NAAG substrate). Type of experiment: biochemical. As to conditions: Target PSMA, average of N replicates; for IC50: PSMA 5 nM, NAAG 40 μM; for Ki: calculated based on Cheng-Prusoff equation. The method, then: Amplex™ Red Glutamic Acid/Glutamate Oxidase Assay Kit Catalog number: A12221 (Thermofisher); Recombinant Human PSMA/FOLH1 Protein, CF (rnd systems); N-Acetyl-Asp-Glu (NAAG) (Sigma Aldrich; 96 well half area plate; Enspire plate reader.
Prepare a working solution of 100 μM Amplex® Red reagent containing 0.25 U/mL HRP, 0.08 U/mL L-glutamate oxidase, 0.5 U/mL 1-glutamate-pyruvate transaminase, 200 μM L-alanine and keep protected from light. […] Final concentration is 5 nM. Transfer 10 μl/well of the inhibitor solution previously prepared in a separate 96 wells/plate.
Pipette 20 μl/well of the working solution prepared above. Incubate the reactions for 30 min at 37° C., protected from light. Because the assay is continuous (not terminated), fluorescence may be measured at multiple time points to follow the kinetics of the reactions. Measure the fluorescence in a fluorescence microplate reader using excitation in the range of 530-560 nm and emission detection at ˜590 nm. Ec50s were determined with GraphPad Prism. Ki is calculated based on Cheng-Prusoff equation.

The source of these data is US20250213705A1, “PSMA TARGETING LIGANDS AND METHODS OF USE” (Bright Peak Therapeutics AG, priority 2023, published 2025).

Sequence of Recombinant Human PSMA/FOLH1 Protein (Q04609 whole entry): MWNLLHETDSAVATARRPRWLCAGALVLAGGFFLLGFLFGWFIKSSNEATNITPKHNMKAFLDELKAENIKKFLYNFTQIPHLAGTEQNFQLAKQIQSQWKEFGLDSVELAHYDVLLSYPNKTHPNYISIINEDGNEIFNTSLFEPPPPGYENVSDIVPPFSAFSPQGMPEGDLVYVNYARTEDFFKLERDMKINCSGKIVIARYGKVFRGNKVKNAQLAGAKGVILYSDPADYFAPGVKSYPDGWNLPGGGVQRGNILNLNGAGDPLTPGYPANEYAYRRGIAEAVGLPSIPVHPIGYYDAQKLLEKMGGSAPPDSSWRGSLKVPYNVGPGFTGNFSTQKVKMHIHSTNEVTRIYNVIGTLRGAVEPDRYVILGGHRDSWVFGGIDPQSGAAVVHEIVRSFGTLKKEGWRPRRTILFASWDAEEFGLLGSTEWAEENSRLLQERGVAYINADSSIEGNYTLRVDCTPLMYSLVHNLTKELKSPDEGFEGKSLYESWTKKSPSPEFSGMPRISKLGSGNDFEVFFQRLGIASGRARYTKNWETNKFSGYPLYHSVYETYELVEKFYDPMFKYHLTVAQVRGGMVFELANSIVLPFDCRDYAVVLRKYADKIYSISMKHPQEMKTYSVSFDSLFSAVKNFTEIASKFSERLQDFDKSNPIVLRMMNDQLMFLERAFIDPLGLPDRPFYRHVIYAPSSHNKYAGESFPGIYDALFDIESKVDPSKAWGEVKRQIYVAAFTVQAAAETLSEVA
Sequence of human FOLH1 (Q04609 whole entry): as above

Broadly, the koff is a measure of how fast the partners let go of each other. Read a high koff as a short-lived complex. As usually defined, the Kd is the free concentration of one partner at which half of the binding sites on the other are occupied at equilibrium, for simple one-to-one binding. The term IC50 denotes the midpoint of a concentration-inhibition curve. As a reminder, the Ki is the dissociation constant of the complex between target and ligand, obtained from inhibition or displacement. For the compound `CC(=O)NCCOCCOCCOCCC(=O)NC[C@H]1CC[C@H](C(=O)N[C@@H](Cc2c[nH]c3ccccc23)C(=O)NCCCC[C@H](NC(=O)N[C@@H](CCC(=O)O)C(=O)O)C(=O)O)CC1` (stereo in doubt) [Compound 2], at human FOLH1, the Kon is 158000 1.ms, the koff came to 3.3e-05 s⁻¹ and binding was characterised by a dissociation constant (Kd) of 0.208 nM. In experiment [1], the IC50 was 25.1 nM and the Ki is 0.18 nM.
For the compound `CC(=O)NCCOCCOCCOCCC(=O)N[C@@H]1C[C@@H](C(=O)N[C@@H](Cc2ccc3ccccc3c2)C(=O)NCCCC[C@H](NC(=O)N[C@@H](CCC(=O)O)C(=O)O)C(=O)O)N(C(=O)CCCOc2cc(C#N)cc(C#N)c2)C1` (stereo in doubt) [Compound 82], on human FOLH1, the Kon was 72200 1.ms, the koff turned out to be 0.000381 s⁻¹ and the Kd amounted to 5.27 nM. In experiment [1], the IC50 was 1.8 nM and the inhibitory constant (Ki) is 0.0129 nM.
On to `CC(=O)NCCOCCOCCOCCC(=O)NC[C@H]1CC[C@H](C(=O)N[C@H](Cc2c[nH]c3ccccc23)C(=O)NCCCC[C@H](NC(=O)N[C@@H](CCC(=O)O)C(=O)O)C(=O)O)CC1` [Compound 5], for which, at human FOLH1, the Kon is recorded as 195000 1.ms; the koff worked out at 0.000543 s⁻¹; the affinity, expressed as Kd, was 2.78 nM. Further, in experiment [1], the IC50 was 81.7 nM and the Ki was 0.584 nM.
With `CC(=O)NCCOCCOCCOCCC(=O)NC[C@H]1CC[C@H](C(=O)N[C@@H](Cc2ccc3ccccc3c2)C(=O)NCCCC[C@H](NC(=O)N[C@@H](CC(=O)O)C(=O)O)C(=O)O)CC1` [Compound 23], at human FOLH1, the Kon is 291000 1.ms and the koff amounted to 0.0349 s⁻¹.
`CC(=O)NCCOCCOCCOCCC(=O)N(CCCOc1cc(C#N)cc(C#N)c1)CC(=O)N[C@@H](Cc1ccc2ccccc2c1)C(=O)NCCCC[C@H](NC(=O)N[C@@H](CCC(=O)O)C(=O)O)C(=O)O` [Compound 78]: at human FOLH1, the Kon is given as 487000 1.ms and the off-rate (koff) came to 0.000208 s⁻¹.
In the same order, the values of `CC(=O)NCCOCCOCCOCCC(=O)N1C[C@H](NC(=O)CCCOc2cc(C#N)cc(C#N)c2)C[C@H]1C(=O)N[C@@H](Cc1ccc2ccccc2c1)C(=O)NCCCC[C@H](NC(=O)N[C@@H](CCC(=O)O)C(=O)O)C(=O)O` [Compound 80] are 243000 1.ms and 0.000599 s⁻¹.
In the same order, the values of `CC(=O)NCCOCCOCCOCCC(=O)N[C@@H]1C[C@@H](C(=O)N[C@@H](Cc2ccc3ccccc3c2)C(=O)NCCCC[C@H](NC(=O)N[C@@H](CCC(=O)O)C(=O)O)C(=O)O)N(C(=O)COc2cc(C#N)cc(C#N)c2)C1` [Compound 81] are 90000 1.ms and 0.000371 s⁻¹.
In the same order, the values of `CC(=O)NCCOCCOCCOCCC(=O)N(CCCOc1cc(C(F)(F)F)cc(C(F)(F)F)c1)CC(=O)N[C@@H](Cc1ccc2ccccc2c1)C(=O)NCCCC[C@H](NC(=O)N[C@@H](CCC(=O)O)C(=O)O)C(=O)O` [Compound 86] are 339000 1.ms and 0.000397 s⁻¹.
`CC(=O)NCCOCCOCCOCCC(=O)N1C[C@H](NC(=O)CCCOc2cc(C#N)cc(C#N)c2)C[C@H]1C(=O)NCC(=O)N[C@@H](Cc1ccc2ccccc2c1)C(=O)NCCCC[C@H](NC(=O)N[C@@H](CCC(=O)O)C(=O)O)C(=O)O` [Compound 91]: on human FOLH1, the Kon is given as 71500 1.ms and the koff came to 0.000258 s⁻¹.
In the same order, the values of `CC(=O)NCCOCCOCCOCCC(=O)N[C@@H]1C[C@@H](C(=O)NCC(=O)N[C@@H](Cc2ccc3ccccc3c2)C(=O)NCCCC[C@H](NC(=O)N[C@@H](CCC(=O)O)C(=O)O)C(=O)O)N(C(=O)CCCOc2cc(C#N)cc(C#N)c2)C1` [Compound 92] are 297000 1.ms and 0.000301 s⁻¹.
In the same order, the values of `CC(=O)NCCOCCOCCOCCC(=O)N[C@@H](Cc1ccc(C(=O)O)cc1)C(=O)NCC(=O)N[C@@H](Cc1ccc2ccccc2c1)C(=O)NCCCC[C@H](NC(=O)N[C@@H](CCC(=O)O)C(=O)O)C(=O)O` [Compound 94] are 112000 1.ms and 0.000261 s⁻¹.
